Test results published in ChEMBL document CHEMBL1949526, “Cyclic hydroxyamidines as amide isosteres: discovery of oxadiazolines and oxadiazines as potent and highly efficacious γ-secretase modulators in vivo” (J Med Chem, 2012).
Active and inactive are the calls of the source. The calls are words filed in the database; no cut-off is given here.

How the values were obtained:
Gamma-secretase [1] = assay: Modulation of gamma-secretase-mediated cleavage of human APP Swedish and London mutation expressed in HEK293 cells assessed as inhibition of amyloid beta42 production after 5 hrs by sandwich immunoassay; assay type: cell-based
Gamma-secretase [2] = assay: Modulation of gamma-secretase-mediated cleavage of human APP Swedish and London mutation expressed in HEK293 cells assessed as reduction of total amyloid beta level after 5 hrs by sandwich immunoassay; assay type: cell-based
[3] = target: T1, Gamma-secretase (Homo sapiens) (UniProt Q96BI3+Q9NZ42+Q8WW43+P49768+Q92542+P49810); assay: Modulation of gamma-secretase-mediated cleavage of human APP Swedish and London mutation expressed in HEK293 cells assessed as reduction of total amyloid beta/amyloid beta42 ratio after 5 hrs by sandwich immunoassay; assay type: cell-based
[4] = Dissociation constant, pKa of the compound; assay type: physicochemical
[5] = Chemical stability of the compound in aqueous 0.1 N HCl/MeOH (1:1) assessed as deterioration of enantiomaric excess after 7 days; assay type: physicochemical; settings: buffer, 168 h
[6] = Chemical stability of the compound under neutral conditions; assay type: physicochemical
[7] = Chemical stability of the compound in aqueous 0.1 N HCl assessed as decomposition to corresponding acetophenone after 3 hrs; assay type: physicochemical; settings: buffer
Gamma-secretase [8] = assay: Modulation of gamma-secretase-mediated cleavage of human APP Swedish and London mutation expressed in HEK293 cells assessed as inhibition of amyloid beta40 production after 5 hrs by sandwich immunoassay; assay type: cell-based
[9] = Aqueous solubility of the compound at pH 3.5; assay type: physicochemical; settings: aqueous medium
[10] = Lipophilicity, log D of the compound at pH 7.4; assay type: physicochemical; settings: buffer
Rattus norvegicus [11] = assay: Antialzheimer activity in rat assessed as reduction in amyloid beta42 level in CSF at 30 mg/kg, po; assay type: functional; set-up: scale not given: the % may be the effect or the level left
Rattus norvegicus [12] = assay: Antialzheimer activity in rat assessed as reduction in amyloid beta42 level in cortex at 30 mg/kg, po; assay type: functional; set-up: scale not given: the % may be the effect or the level left
[13] = target: Voltage-gated inwardly rectifying potassium channel KCNH2 (Homo sapiens, UniProt Q12809); assay: Inhibition of human ERG by cell based voltage clamp assay
[14] = Permeability from apical to basolateral side of human Caco2 cells; assay type: ADME, cell-based; settings: Caco-2, read-out: permeability
Canis familiaris = organism: Canis familiaris; assay: Cardiotoxicity in dog assessed as effect on electrocardiographic QTc interval at compound concentration required for pharmacological effect; assay type: toxicity, organism-based, Canis lupus familiaris; settings: in vivo
[15] = target: T1, Gamma-secretase (Homo sapiens); assay: Modulation of gamma-secretase-mediated cleavage of human APP Swedish and London mutation expressed in HEK293 cells assessed as inhibition of amyloid beta42 production at 10 uM by SELDI-MS analysis; assay type: cell-based
[16] = target: T1, Gamma-secretase (Homo sapiens); assay: Modulation of gamma-secretase-mediated cleavage of human APP Swedish and London mutation expressed in HEK293 cells assessed as inhibition of amyloid beta40 production at 10 uM by SELDI-MS analysis; assay type: cell-based
[17] = target: T1, Gamma-secretase (Homo sapiens); assay: Modulation of gamma-secretase-mediated cleavage of human APP Swedish and London mutation expressed in HEK293 cells assessed as inhibition of amyloid beta39 production at 10 uM by SELDI-MS analysis; assay type: cell-based
[18] = target: T1, Gamma-secretase (Homo sapiens); assay: Modulation of gamma-secretase-mediated cleavage of human APP Swedish and London mutation expressed in HEK293 cells assessed as increase in amyloid beta37 production at 10 uM by SELDI-MS analysis; assay type: cell-based
[19] = target: T1, Gamma-secretase (Homo sapiens); assay: Modulation of gamma-secretase-mediated cleavage of human APP Swedish and London mutation expressed in HEK293 cells assessed as increase in amyloid beta38 production at 10 uM by SELDI-MS analysis; assay type: cell-based
Rattus norvegicus [20] = assay: Antialzheimer activity in po dosed CD rat assessed as reduction in amyloid beta42 level in CSF after 3 hrs by alphaLISA analysis relative to total amyloid beta level; assay type: functional, organism-based
Rattus norvegicus [21] = assay: Antialzheimer activity in po dosed CD rat assessed as reduction in amyloid beta42 level in plasma after 3 hrs by alphaLISA analysis relative to total amyloid beta level; assay type: functional, organism-based
Rattus norvegicus [22] = assay: Antialzheimer activity in po dosed CD rat assessed as reduction in amyloid beta42 level in plasma after 3 hrs by alphaLISA analysis relative to amyloid beta40 level; assay type: functional, organism-based
Rattus norvegicus [23] = assay: Antialzheimer activity in po dosed CD rat assessed as reduction in amyloid beta42 level in cortex after 3 hrs by alphaLISA analysis relative to total amyloid beta level; assay type: functional, organism-based
Rattus norvegicus [24] = assay: Antialzheimer activity in po dosed CD rat assessed as reduction in amyloid beta42 level in cortex after 3 hrs by alphaLISA analysis relative to amyloid beta40 level; assay type: functional, organism-based
Rattus norvegicus [25] = assay: Antialzheimer activity in CD rat assessed as reduction in amyloid beta42 level in CSF administered as po for 6 days by alphaLISA analysis relative to total amyloid beta level; assay type: functional, organism-based
Rattus norvegicus [26] = assay: Antialzheimer activity in po dosed CD rat assessed as reduction in amyloid beta42 level in CSF after 3 hrs by alphaLISA analysis relative to amyloid beta40 level; assay type: functional, organism-based
Rattus norvegicus [27] = assay: Antialzheimer activity in CD rat assessed as reduction in amyloid beta42 level in plasma administered as po for 6 days by alphaLISA analysis relative to total amyloid beta level; assay type: functional, organism-based
Rattus norvegicus [28] = assay: Antialzheimer activity in CD rat assessed as reduction in amyloid beta42 level in plasma administered as po for 6 days by alphaLISA analysis relative to total amyloid beta40 level; assay type: functional, organism-based
Rattus norvegicus [29] = assay: Antialzheimer activity in CD rat assessed as reduction in amyloid beta42 level in cortex administered as po for 6 days by alphaLISA analysis relative to total amyloid beta level; assay type: functional, organism-based
Rattus norvegicus [30] = assay: Antialzheimer activity in CD rat assessed as reduction in amyloid beta42 level in cortex administered as po for 6 days by alphaLISA analysis relative to total amyloid beta40 level; assay type: functional, organism-based
Rattus norvegicus [31] = assay: Antialzheimer activity in CD rat assessed as reduction in amyloid beta42 level in CSF administered as po for 6 days by alphaLISA analysis relative to total amyloid beta40 level; assay type: functional, organism-based

Voltage-gated inwardly rectifying potassium channel KCNH2, sequence (Q12809 whole entry): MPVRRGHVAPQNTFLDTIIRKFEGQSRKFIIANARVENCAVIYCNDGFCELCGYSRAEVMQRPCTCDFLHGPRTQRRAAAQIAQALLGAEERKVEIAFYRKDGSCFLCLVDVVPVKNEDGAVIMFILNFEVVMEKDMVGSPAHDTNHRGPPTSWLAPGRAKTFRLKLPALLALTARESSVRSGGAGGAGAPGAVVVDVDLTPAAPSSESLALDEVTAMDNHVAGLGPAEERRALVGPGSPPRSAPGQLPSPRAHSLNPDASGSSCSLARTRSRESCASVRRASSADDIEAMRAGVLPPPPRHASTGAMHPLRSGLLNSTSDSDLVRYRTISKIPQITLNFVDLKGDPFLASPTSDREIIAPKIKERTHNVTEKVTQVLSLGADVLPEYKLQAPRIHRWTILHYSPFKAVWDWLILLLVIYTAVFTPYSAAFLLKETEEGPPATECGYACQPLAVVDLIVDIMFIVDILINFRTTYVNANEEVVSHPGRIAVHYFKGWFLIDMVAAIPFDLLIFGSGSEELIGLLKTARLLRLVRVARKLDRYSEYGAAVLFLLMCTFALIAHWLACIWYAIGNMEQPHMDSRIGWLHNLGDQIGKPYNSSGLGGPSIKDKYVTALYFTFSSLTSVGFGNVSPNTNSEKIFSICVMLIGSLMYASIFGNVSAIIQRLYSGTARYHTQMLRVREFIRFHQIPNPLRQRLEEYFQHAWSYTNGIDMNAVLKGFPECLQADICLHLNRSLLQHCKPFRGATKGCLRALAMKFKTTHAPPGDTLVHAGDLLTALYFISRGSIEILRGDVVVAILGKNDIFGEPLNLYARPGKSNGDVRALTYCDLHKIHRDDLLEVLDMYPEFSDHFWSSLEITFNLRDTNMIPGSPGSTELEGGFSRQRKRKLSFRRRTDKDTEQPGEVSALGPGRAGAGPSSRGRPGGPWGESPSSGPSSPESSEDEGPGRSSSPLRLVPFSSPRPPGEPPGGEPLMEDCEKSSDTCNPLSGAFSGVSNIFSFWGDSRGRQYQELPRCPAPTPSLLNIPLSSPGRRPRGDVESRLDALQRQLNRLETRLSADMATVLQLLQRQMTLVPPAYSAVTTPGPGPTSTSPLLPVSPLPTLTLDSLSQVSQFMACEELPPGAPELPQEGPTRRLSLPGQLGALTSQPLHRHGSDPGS

SMILES	IC50 (Gamma-secretase [1])	IC50 (Gamma-secretase [2])	Ratio IC50 [3]	also measured
COc1cc(/C=C2\CCCN3C2=NOC3(CO)c2cncc(F)c2)ccc1-n1cnc(C)c1 (single isomer, unassigned)	0.106 µM	> 20 µM	> 189	
c1ccc(-n2ccnc2)cc1				pKa [4]: 5.1
COc1cc(/C=C2\CCCN3C2=NO[C@@]3(CO)c2ccc(F)cc2)ccc1-n1cnc(C)c1	7.64 µM	> 20 µM		pKa [4]: 5.8; Stability [5]: Stable
COc1cc(/C=C2\CCCN3C2=NOC3(CO)c2cc(F)cc(F)c2)ccc1-n1cnc(C)c1 (single isomer, unassigned)	0.021 µM	6.75 µM	316	
COc1cc(/C=C2\CCCN3C2=NO[C@@]3(c2ccc(F)cc2)[C@H](C)O)ccc1-n1cnc(C)c1	0.089 µM	> 20 µM	> 225	
COC[C@]1(c2ccc(F)cc2)ON=C2/C(=C/c3ccc(-n4cnc(C)c4)c(OC)c3)CCCN21	0.122 µM	17.5 µM	144	
COc1cc(/C=C2\CCCN3C2=NOC3(CO)c2ccccc2F)ccc1-n1cnc(C)c1 (single isomer, unassigned)	0.053 µM	10.1 µM	189	
COCCCN1C(/C=C/c2ccc(-n3cnc(C)c3)c(OC)c2)=NOC1(C)c1ccc(F)cc1 (racemic)	0.187 µM			Stability [6]: Stable; Stability [7]: Unstable; IC50 (Gamma-secretase [8]): 2 µM
COc1cc(/C=C2\CCCN3C2=NOC3(CO)c2ccc(C#N)cc2)ccc1-n1cnc(C)c1 (single isomer, unassigned)	0.117 µM	> 20 µM	> 171	
COCCCN(C(=O)/C=C/c1ccc(-n2cnc(C)c2)c(OC)c1)c1cccc2ccccc12	0.06 µM			
COc1cc(/C=C2\CCCN3C2=NO[C@]3(CN(C)S(C)(=O)=O)c2ccc(F)cc2)ccc1-n1cnc(C)c1	0.072 µM	19.3 µM	269	
COc1cc(/C=C2\CCCN(C3(c4ccccc4)CCOCC3)C2=O)ccc1-n1cnc(C)c1	0.056 µM			
COc1cc(/C=C2\CCCN3C2=NO[C@]3(CNCCO)c2ccc(F)cc2)ccc1-n1cnc(C)c1	0.08 µM	> 20 µM	> 250	
COc1cc(/C=C2\CCCN3C2=NO[C@]3(CN(C)C(C)=O)c2ccc(F)cc2)ccc1-n1cnc(C)c1	0.199 µM	> 20 µM	> 101	
COc1cc(/C=C2\CCCN3C2=NOC3(CO)c2cc(F)c(F)c(F)c2)ccc1-n1cnc(C)c1 (single isomer, unassigned)	0.015 µM	15.8 µM	1020	
COc1cc(/C=C2\CCCN3C2=NOC[C@@H]3c2cc(F)c(F)c(F)c2)ccc1-n1cnc(C)c1.Cl				solubility [9]: > 100 mM; logD [10]: 5.29
COc1cc(/C=C2\CCCN3C2=NOC3(CO)c2ccccc2)ccc1-n1cnc(C)c1 (single isomer, unassigned)	0.096 µM	3.21 µM	33	
COc1cc(/C=C2\CCCN([C@@H](C)c3ccc(F)cc3)C2=O)ccc1-n1cnc(C)c1				Activity (Rattus norvegicus [11]): 55%; Activity (Rattus norvegicus [12]): 44%; IC50 [13]: 1.2 µM; Papp A→B [14]: 579 nm/s; Activity (Canis familiaris): Non-toxic
COc1cc(/C=C2\CCCN3C2=NOC3(CO)c2cccc(F)c2)ccc1-n1cnc(C)c1 (single isomer, unassigned)	0.026 µM	7.16 µM	280	
COc1cc(/C=C2\CCCN3C2=NOC3(CO)c2ccc(F)cn2)ccc1-n1cnc(C)c1 (single isomer, unassigned)	0.103 µM	19.7 µM	192	
CNC[C@]1(c2ccc(F)cc2)ON=C2/C(=C/c3ccc(-n4cnc(C)c4)c(OC)c3)CCCN21	0.191 µM	> 20 µM	> 105	
COc1cc(/C=C2\CCCN3C2=NO[C@]3(CN(C)C)c2ccc(F)cc2)ccc1-n1cnc(C)c1	0.196 µM	18.8 µM	96	
COc1cc(/C=C2\CCCN3C2=NOC[C@@H]3c2cc(F)c(F)c(F)c2)ccc1-n1cnc(C)c1				Activity [15]: Active; Activity [16]: Active; Activity [17]: Active; Activity [18]: Active; Activity [19]: Active; Activity (Rattus norvegicus [20]): Dose-dependent effect; Activity (Rattus norvegicus [21]): Dose-dependent effect; Activity (Rattus norvegicus [22]): Dose-dependent effect; Activity (Rattus norvegicus [23]): Dose-dependent effect; Activity (Rattus norvegicus [24]): Dose-dependent effect; Activity (Rattus norvegicus [25]): Dose-dependent effect; Activity (Rattus norvegicus [26]): Dose-dependent effect; Activity (Rattus norvegicus [27]): Dose-dependent effect; Activity (Rattus norvegicus [28]): Dose-dependent effect; Activity (Rattus norvegicus [29]): Dose-dependent effect; Activity (Rattus norvegicus [30]): Dose-dependent effect; Activity (Rattus norvegicus [31]): Dose-dependent effect
COc1cc(/C=C2\CCCN3C2=NO[C@@]3(c2ccc(F)cc2)[C@@H](C)O)ccc1-n1cnc(C)c1	0.046 µM	16.2 µM	350	
